Square brackets hold non-standard residues; d marks the D form. Peptide text beside a SMILES is read from it. * marks the point of attachment. Sta = CC(C)C[C@H](N)[C@@H](O)CC(=O)O; Isovaleryl = CC(C)CC(=O)*
Tests used:
HIV-1 protease = biological target: T1, HIV-1 protease (Human immunodeficiency virus type 1 group M subtype B, UniProt P04585); assay: In vitro HIV protease inhibitory assay (fluorescently labeled substrate); type: biochemical; conditions: pH 5.5, one hour, room temperature
T1 construct: The protease (or proteinase) enzyme, consisting of only 99 amino acids
Method: The HIV protease screening assay is based on a fluorescently labeled substrate which can be resolved from nonlabeled cleavage product using avidin-polystyrene particles, 0.7-0.9 μm. The substrate is biotinylated at the amino terminal arginine and fluorescently labeled with fluorescein isothiocynate (FITC) at the carboxyl terminal lysine. This assay has been employed to detect novel, nonpeptidic inhibitors of HIV-1 protease. Substrate (20 μl of 0.2 μM), sample (10 μl of desired concentration), and enzyme (10 μl of 0.1 μM) are added to a 96 well pandex plate. The assay is run in 0.1 M sodium acetate buffer at pH 5.5 in the presence of 1.0 M sodium chloride and 0.05% NP-40 and incubated in the dark for one hour at room temperature. Avidin coated polystyrene beads (40 μl of 0.1% (w/v)) are added and the incubation is continued in the dark for an additional half hour. The labeled cleavage product is separated from the unreacted substrate via filtration and is read on the IDEXX Screen Machine. (IDEXX Corporation--Portland, Maine) The data are analyzed by appropriate computer algorithms to ascertain percent inhibition values.
The Activity Table showing the results of the HIV Protease Inhibitory Assay appears below in TABLE 1. The table has three columns, the left column provides the code number of the compound for easy cross reference to structure tables and detailed procedures, the middle column provides the concentration of test compound and the column on the right provides the percent inhibition.

[1] = system: viral reverse transcriptase; conditions: cited from earlier work
HIV-I protease = conditions: Seelmeier et al.; cited from earlier work
[2] = HIV-1 Dose 3.3 (unit not given)
[3] = HIV-1 Dose 10.0 (unit not given)
[4] = HIV-1 Dose 30.0 (unit not given)

Structure (SMILES) | % Inhibition (HIV-1 protease; [2]) | % Inhibition (HIV-1 protease; [3]) | % Inhibition (HIV-1 protease; [4]) | inhibitor of viral reverse transcriptase [1] | inhibitor of HIV-I protease (HIV-I protease)
CCCC1(CCC)OC(=O)C(C(c2cccc(N(C)S(=O)(=O)c3ccc(C#N)cc3)c2)C2CC2)=C1O (centres unmarked) [AX-1] | 103.5% | 111.53% | 102.32% |  | 
Cc1cn([C@H]2C[C@H](N=[N+]=[N-])[C@@H](CO)O2)c(=O)[nH]c1=O [AZT, 3-azido-3-deoxythymidine] |  |  |  | known inhibitor of viral reverse transcriptase | 
N#Cc1ccc(S(=O)(=O)Nc2cccc(C(C3=C(O)C4(CCN(C(=O)OCC5c6ccccc6-c6ccccc65)CC4)OC3=O)C3CC3)c2)cc1 (centres unmarked) [BX-1] | 113.09% | 126.98% | 123.63% |  | 
N#Cc1ccc(S(=O)(=O)Nc2cccc(C(C3=C(O)C4(CCNCC4)OC3=O)C3CC3)c2)cc1 (centres unmarked) [BX-2] | 90.58% | 103.27% | 101.26% |  | 
N#Cc1ccc(S(=O)(=O)Nc2cccc(C(C3=C(O)C4(CCN(CC5c6ccccc6-c6ccccc65)CC4)OC3=O)C3CC3)c2)cc1 (centres unmarked) [BX-3] | 108.72% | 107% | 103.12% |  | 
CCN1CCC2(CC1)OC(=O)C(C(c1cccc(NS(=O)(=O)c3ccc(C#N)cc3)c1)C1CC1)=C2O (centres unmarked) [BX-4] | 71.3% | 94.47% | 101.07% |  | 
CN1CCC2(CC1)OC(=O)C(C(c1cccc(NS(=O)(=O)c3ccc(C#N)cc3)c1)C1CC1)=C2O (centres unmarked) [BX-5] | 61.58% | 85.22% | 98.54% |  | 
CC(=O)N1CCC2(CC1)OC(=O)C(C(c1cccc(NS(=O)(=O)c3ccc(C#N)cc3)c1)C1CC1)=C2O (centres unmarked) [CX-1] | 107.43% | 98.33% | 103.37% |  | 
N#Cc1ccc(S(=O)(=O)Nc2cccc(C(C3=C(O)C4(CCN(C(=O)c5ccccc5)CC4)OC3=O)C3CC3)c2)cc1 (centres unmarked) [CX-2] | 107.56% | 109.04% | 110.58% |  | 
CCCC1(CCC)OC(=O)C(C(c2cccc(NS(=O)(=O)c3cccnn3)c2)C2CC2)=C1O (centres unmarked) [DX-1] | 108.97% | 109.57% | 113.85% |  | 
CCC1CCCCC12OC(=O)C(C(c1cccc(NS(=O)(=O)c3ccc(C#N)cc3)c1)C1CC1)=C2O (centres unmarked) [DX-2] | 115.79% | 115.80% | 113.98% |  | 
CCC1CCCCC12OC(=O)C(C(c1cccc(NS(=O)(=O)c3ccc(C#N)cc3)c1)C1CC1)=C2O (centres unmarked) [DX-3] | 117.26% | 110.16% | 113.83% |  | 
C=CCC1(CC=C)OC(=O)C(C(c2ccccc2)C2CC2)=C1O (centres unmarked) [DX-4] | 108.42% | 106.81% | 106.29% |  | 
CC(C)CC(=O)N[C@H](C(=O)N[C@H](C(=O)N[C@@H](CC(C)C)[C@@H](O)CC(=O)N[C@@H](C)C(=O)N[C@@H](CC(C)C)[C@@H](O)CC(=O)O)C(C)C)C(C)C [Pepstatin A] (Isovaleryl-VV[Sta]A[Sta]-OH) |  |  |  |  | inhibitor of HIV-I protease

Source: patent US6060600A, “Substituted tetronic acids useful for treating HIV and other retroviruses” (Pharmacia & Upjohn Company, priority 1997, dated 2000)
